{"source": "patent US20210069152A1", "about": "“METHODS FOR TREATING HETEROTOPIC OSSIFICATION” (Clementia Pharmaceuticals Inc., priority 2016, published 2021)", "key": {"wild-type mice": {"system": "wild-type mice", "assay": "Growth plate assessment in wild-type mice", "assay_type": "in vivo", "procedure": "(§1) The effects of palovarotene on the growth plates were assessed."}, "Prrx1-R206H mice": {"system": "Prrx1-R206H mice", "assay": "Growth plate assessment in Prrx1-R206H mice", "assay_type": "in vivo", "procedure": "as §1"}, "growth plate": {"system": "growth plate", "assay": "Growth plate assessment by knee and hand/wrist radiographs in children", "assay_type": "in vivo, human", "conditions": "acute 6-week treatment"}, "[1]": {"system": "subjects with fibrodysplasia ossificans progressiva", "assay": "Safety outcomes, open-label study", "assay_type": "in vivo, human", "procedure": "(§2) Sixty-seven flare-ups have been treated: 40 with double-blind medication (10 subjects received placebo, 9 subjects received palovarotene at 5 mg once daily for 2 weeks followed by 2.5 mg once daily for 4 weeks, and 21 subjects received palovarotene at 10 mg once daily for 2 weeks followed by 5 mg once daily for 4 weeks); and 27 received open-label palovarotene. Sixty-one of these 67 flare-ups have available results from post-baseline imaging (by low-dose CT scan). The results are summarized for the respective studies in FIGS. 1 and 2.\nThe findings were similar in the open-label study (described in Example 1) in which the overall incidence of adverse events was 92.3% (12 of 13 subjects). Retinoid-associated adverse events were reported by all subjects; most were mild (69.2%) in severity. The most frequently reported adverse events overall were dry skin (69.2%) and pruritus (61.5%)."}, "[2]": {"system": "subjects with fibrodysplasia ossificans progressiva", "assay": "Safety outcomes, double-blind study", "assay_type": "in vivo, human", "procedure": "as §2\nThe most frequently reported adverse events overall were dry skin (58.8%) and dry lips (32.4%)."}, "[3]": {"system": "heterotopic ossification in subjects with fibrodysplasia ossificans progressiva", "assay": "Flare-up outcomes, open-label study (new HO by low-dose CT scan)", "assay_type": "in vivo, human", "conditions": "open-label extension study, 27 flare-ups treated with open-label palovarotene", "procedure": "as §2"}, "[4]": {"system": "heterotopic ossification in subjects with fibrodysplasia ossificans progressiva", "assay": "Volume of new heterotopic ossification at flare-up site (x-ray / low-dose CT) in FOP patients, adult cohort dosing regimens", "assay_type": "in vivo, human", "conditions": "for reduction in mean bone volume formation (new HO) relative to Placebo/Untreated group: 12 weeks", "procedure": "FIGS. 3A and 3B are graphs showing a comparison of the volume of new heterotopic ossification between (i) episodic treatment of FOP patients (i.e., treatment during non-quiescent periods only and (ii) the treatment regimens of the present invention that include treatment during both quiescent and non-quiescent periods. Patients in the “Placebo/Untreated” group were treated with a sugar pill or untreated (28 patients). Patients in the “PVO Non-Quiescent Only” group were treated with either 20 mg palovarotene (PVO) daily for 28 days followed by 10 mg PVO daily for 56 days (47 patients) or 10 mg PVO daily for 14 days followed by 5 mg PVO daily for 28 days (9 patients). Patients in the “PVO Quiescent/Non-Quiescent” group were treated with 5 mg PVO daily during the quiescent period and with 20 mg PVO daily for 28 days (NQ loading dose) followed by 10 mg PVO daily for 56 days (NQ maintenance dose) following initiation of flare-up symptoms, i.e., initiation of a non-quiescent period (10 patients).\nAdult cohort includes individuals who have achieved at least 90% skeletal maturity irrespective of age. Individuals in the adult cohort received palovarotene (neutral form) at 5 mg once daily as a non-flare-up based treatment (e.g., during periods when symptoms of a flare-up were not present). […]\nAssessment of new HO at the flare-up site was evaluated using x-ray, and low-dose CT imaging was employed as a secondary imaging assessment. […] In order to ensure consistency and standardization, images were evaluated for the presence or absence of HO using two independent procedures, both of which were blinded to treatment group assignment. In the Primary Read process, two musculoskeletal radiologists independently compared baseline and post-baseline images within a single imaging modality.\nThe volume of new heterotopic ossification (HO), HO that occurred during the non-quiescent period, was assessed 12 weeks following initiation of treatment for the “Non-Quiescent Only” treatment group and 12 weeks after initiation of the 20 mg/day NQ loading dose in the “Quiescent/Non-Quiescent” treatment group."}}, "data": [{"smiles": "CC1(C)CCC(C)(C)c2cc(Cn3cccn3)c(/C=C/c3ccc(C(=O)O)cc3)cc21", "note": "[palovarotene, 4-[(1E)-2-[5,6,7,8-Tetrahydro-5,5,8,8-tetramethyl-3-(1H-pyrazol-1-ylmethyl)-2-naphthalenyl]-ethenyl]-benzoic acid]", "values": [{"measurement": "effect on growth plate", "setting": "wild-type mice", "result": "Adverse effects"}, {"measurement": "effect on long bone growth, growth plate organization and matrix deposition", "setting": "Prrx1-R206H mice", "result": "preserved long bone growth and near-normalized growth plate organization and matrix deposition"}, {"measurement": "effect on histologic growth plate abnormalities and long bone length", "setting": "Prrx1-R206H mice; daily dosing", "result": "reversed histologic growth plate abnormalities and shortened long bones"}, {"measurement": "adverse effects on the growth plate", "setting": "growth plate", "result": "no adverse effects on the growth plate"}, {"measurement": "dose reductions or discontinuations of treatment", "setting": "[1]", "result": "no dose reductions or discontinuations of treatment"}, {"measurement": "retinoid-associated adverse events mild in severity", "setting": "[1]", "result": 69.2, "unit": "%"}, {"measurement": "subjects reporting retinoid-associated adverse events", "setting": "[1]", "result": "all subjects"}, {"measurement": "overall incidence of adverse events", "setting": "[1]; 12 of 13 subjects", "result": 92.3, "unit": "%"}, {"measurement": "incidence of dry skin", "setting": "[1]; overall", "result": 69.2, "unit": "%"}, {"measurement": "incidence of pruritus", "setting": "[1]; overall", "result": 61.5, "unit": "%"}, {"measurement": "dose reductions or discontinuations of treatment", "setting": "[2]", "result": "no dose reductions or discontinuations of treatment"}, {"measurement": "incidence and severity of retinoid-associated adverse events, trend", "setting": "[2]", "result": "dose-related increases in the incidence and severity"}, {"measurement": "severity of most retinoid-associated adverse events", "setting": "[2]", "result": "mild or moderate"}, {"measurement": "trend of adverse event incidence across the treatment groups", "setting": "[2]", "result": "dose-related increases across the treatment groups"}, {"measurement": "overall incidence of adverse events", "setting": "[2]; 33 of 34 subjects with safety data, all treatment groups (placebo, 5/2.5 mg, 10/5 mg)", "result": 97.1, "unit": "%"}, {"measurement": "incidence of dry lips", "setting": "[2]; overall", "result": 32.4, "unit": "%"}, {"measurement": "incidence of dry skin", "setting": "[2]; overall", "result": 58.8, "unit": "%"}, {"measurement": "number of flare-ups with new HO", "setting": "[3]", "result": "four"}, {"measurement": "reduction in mean bone volume formation (new HO) relative to Placebo/Untreated group", "setting": "[4]; Non-Quiescent Only group (both doses pooled)", "result": 75, "unit": "%"}, {"measurement": "volume of new heterotopic ossification", "setting": "[4]; PVO Quiescent/Non-Quiescent: 5 mg daily quiescent, 20 mg daily 28 days then 10 mg daily 56 days after flare-up (10 patients), 12 weeks after start of NQ loading dose", "result": 212, "unit": "mm^3"}, {"measurement": "reduction in mean bone volume formation (new HO) relative to Placebo/Untreated group", "setting": "[4]; Quiescent/Non-Quiescent group", "result": 97, "unit": "%"}]}]}
